The source of these data is ChEMBL document CHEMBL1125524, “Adenosine A1 antagonists. 2. Structure-activity relationships on diuretic activities and protective effects against acute renal failure” (J Med Chem, 1992).

In assay [1] the test system is Rattus norvegicus. The assay can be described thus: Serum creatinine concentration measured after intraperitoneal administration of 1 mg/kg of compound to rats(vehicle 3.06+/-0.68). The class given is functional.
Assay [2] relates to Rattus norvegicus. The experiment in a line: Serum creatinine concentration measured after intraperitoneal administration of 10 mg/kg of compound to rats(vehicle 4.26+/-0.39). The class given is functional.
For assay [3], the system named is Rattus norvegicus. The experiment in a line: Effect on urinary excretion potassium and sodium after oral administration of 1.6 mg/kg to rats(potassium and sodium excretion in control rat is 0.158+/-0.034). The format is functional, Urine.
Assay [4] deals with Rattus norvegicus. The assay can be described thus: Percent inhibition of serum creatinine by the compound given as ratio of Cr value in treated to vehicle treated ones after intraperitoneal administration of 10 mg/kg of compound to rats(vehicle 4.26+/-0.39). The format is functional. Conditions: ip.
Assay [5] relates to Rattus norvegicus. The experiment in a line: Ratio of urinary excretion value (urinary volume) in treated rats to that in control rats, at a peroral dose of 1.6 mg/Kg. The class given is functional, Urine.
The test system of assay [6] is Rattus norvegicus. The assay can be described thus: Ratio of urinary excretion value (urinary volume) in treated rats to that in control rats, at a peroral dose of 25 mg/Kg. The class given is functional, Urine.
In assay [7] the test system is Rattus norvegicus. The experiment in a line: Percent inhibition of serum creatinine by the compound given as ratio of Cr value in treated to vehicle treated ones after intraperitoneal administration of 1 mg/kg of compound to rats(vehicle 3.06+/-0.68). The format is functional. Conditions: ip.
Assay [8] concerns Rattus norvegicus. The assay can be described thus: Ratio of sodium ion/potassium ion concentration in treated rats to that in control rats, at a peroral dose of 1.6 mg/Kg. The format is functional.
In assay [9] the test system is Rattus norvegicus. The assay can be described thus: Ratio of sodium ion/potassium ion concentration in treated rats to that in control rats, at a peroral dose of 25 mg/Kg. The class given is functional.
Assay [10] has as its system Rattus norvegicus. The assay can be described thus: Ratio of urinary excretion value (Na+ concentration) in treated rats to that in control rats, at a peroral dose of 1.6 mg/Kg. The format is functional, Urine.
Assay [11] relates to Rattus norvegicus. The experiment in a line: Ratio of urinary excretion value (Na+ concentration) in treated rats to that in control rats, at a peroral dose of 25 mg/Kg. The class given is functional, Urine.
In assay [12] the test system is Rattus norvegicus. The experiment in a line: Effect on urinary excretion potassium and sodium after oral administration of 25 mg/kg to rats(potassium and sodium excretion in control rat is 0.079+/-0.007). The format is functional, Urine.
Assay [13] relates to Rattus norvegicus. The assay can be described thus: Oral diuretic activity was measured after oral administration of 25 mg/kg to rats(control volume is 0.69+/-0.03). The format is functional, Urine.
Assay [14] deals with Rattus norvegicus. The assay can be described thus: Urea nitrogen concentration measured after intraperitoneal administration of 10 mg/kg of compound to rats(vehicle 146.7+/-10.1). The class given is functional.
The subject of assay [15] is Rattus norvegicus. The experiment in a line: Urea nitrogen concentration measured after intraperitoneal administration of 1 mg/kg of compound to rats(vehicle 120.9+/-23.3). The format is functional.
Assay [16] concerns Rattus norvegicus. The assay can be described thus: Percent inhibition of serum creatinine by the compound given as ratio of UN value in treated to vehicle treated ones after intraperitoneal administration of 10 mg/kg of compound to rats(vehicle 146.7+/-10.1). The format is functional. Conditions: ip.
The subject of assay [17] is Rattus norvegicus. The assay can be described thus: Percent inhibition of serum creatinine by the compound given as ratio of UN value in treated to vehicle treated ones after intraperitoneal administration of 1 mg/kg of compound to rats(vehicle 120.9+/-23.3). The class given is functional. The conditions noted are these: ip.
Assay [18] deals with Rattus norvegicus. The assay can be described thus: Oral diuretic activity was measured after oral administration of 1.6 mg/kg to rats(control volume is 1.12+/-0.33). The class given is functional, Urine.
For another assay, the target named is Adenosine A2 receptor (Rattus norvegicus, UniProt P29276+P30543).
The test system of assay [19] is Rattus norvegicus. The assay can be described thus: Serum creatinine concentration measured after intraperitoneal administration of 1 mg/kg of compound to rats(vehicle 4.09+/-0.39). The class given is functional.
The test system of assay [20] is Rattus norvegicus. The experiment in a line: Serum creatinine concentration measured after intraperitoneal administration of 1 mg/kg of compound to rats(vehicle 5.08+/-0.14). The format is functional.
Assay [21] concerns Rattus norvegicus. The assay can be described thus: Serum creatinine concentration measured after intraperitoneal administration of 1 mg/kg of compound to rats(vehicle 6.90+/-0.2). The format is functional.
The test system of assay [22] is Rattus norvegicus. The assay can be described thus: Effect on urinary excretion potassium and sodium after oral administration of 0.1 mg/kg to rats(potassium and sodium excretion in control rat is 0.179+/-0.038). The format is functional, Urine.
The test system of assay [23] is Rattus norvegicus. The experiment in a line: Ratio of urinary excretion value (urinary volume) in treated rats to that in control rats, at a peroral dose of 0.1 mg/Kg. The format is functional, Urine.
In assay [24] the test system is Rattus norvegicus. The assay can be described thus: Urea nitrogen concentration measured after intraperitoneal administration of 1 mg/kg of compound to rats(vehicle 165.3+/-4). The class given is functional.
The subject of assay [25] is Rattus norvegicus. The experiment in a line: Urea nitrogen concentration measured after intraperitoneal administration of 1 mg/kg of compound to rats(vehicle 171.3+/-6.4). The format is functional.
In assay [26] the test system is Rattus norvegicus. The assay can be described thus: Effect on urinary excretion potassium and sodium after oral administration of 0.01 mg/kg to rats(potassium and sodium excretion in control rat is 0.191+/-0.020). The class given is functional, Urine.
For assay [27], the system named is Rattus norvegicus. The assay can be described thus: Ratio of sodium ion/potassium ion concentration in treated rats to that in control rats, at a peroral dose of 0.01 mg/Kg. The class given is functional.
Assay [28] concerns Rattus norvegicus. The experiment in a line: Ratio of sodium ion/potassium ion concentration in treated rats to that in control rats, at a peroral dose of 0.1 mg/Kg. The class given is functional.
Assay [29] relates to Rattus norvegicus. The assay can be described thus: Ratio of urinary excretion value (Na+ concentration) in treated rats to that in control rats, at a peroral dose of 0.01 mg/Kg. The format is functional, Urine.
For assay [30], the system named is Rattus norvegicus. The experiment in a line: Ratio of urinary excretion value (Na+ concentration) in treated rats to that in control rats, at a peroral dose of 0.1 mg/Kg. The format is functional, Urine.
Assay [31] has as its system Rattus norvegicus. The assay can be described thus: Ratio of urinary excretion value (urinary volume) in treated rats to that in control rats, at a peroral dose of 0.01 mg/Kg. The class given is functional, Urine.
Assay [32] concerns Rattus norvegicus. The experiment in a line: Effect on urinary excretion potassium and sodium after oral administration of 1.6 mg/kg to rats(potassium and sodium excretion in control rat is 0.173+/-0.015). The format is functional, Urine.
For assay [33], the system named is Rattus norvegicus. The assay can be described thus: Oral diuretic activity was measured after oral administration of 1.6 mg/kg to rats(control volume is 0.93+/-0.03). The class given is functional, Urine.
The test system of assay [34] is Rattus norvegicus. The experiment in a line: Oral diuretic activity was measured after oral administration of 0.01 mg/kg to rats(control volume is 1.15+/-0.17). The class given is functional, Urine.
Assay [35] concerns Rattus norvegicus. The experiment in a line: Oral diuretic activity was measured after oral administration of 0.1 mg/kg to rats(control volume is 0.75+/-0.12). The format is functional, Urine.
Assay [36] concerns Rattus norvegicus. The assay can be described thus: Urea nitrogen concentration measured after intraperitoneal administration of 1 mg/kg of compound to rats(vehicle 143.9+/-12.2). The format is functional.

pKi: −log10 of the molar value.

As to `CCCn1c(=O)c2nc(C[C@H]3CC4CCC3C4)[nH]c2n(CCC)c1=O` (stereo partly specified), the figures for the Cr with Rattus norvegicus [1] and in the assay on Rattus norvegicus [2] were 2.75 mg/dL and 2.53 mg/dL, respectively. For the same compound, the Na in the assay with Rattus norvegicus [3] is given as 0.131 m equiv 6hr-1 100g-1; with Rattus norvegicus [12] it was 0.23 m equiv 6hr-1 100g-1. The inhibition in vivo at 10 mg/kg turned out to be 41% in the assay with Rattus norvegicus [4] and 38% in the assay with Rattus norvegicus [16]. Moreover, the T/C in the assay on Rattus norvegicus [5] is 0.77; with Rattus norvegicus [6] it was 2.41; in the assay on Rattus norvegicus [10], 0.83; in the assay on Rattus norvegicus [11], 2.91. Also, the inhibition in vivo at 1 mg/kg in the assay on Rattus norvegicus [7] came out at 10%; with Rattus norvegicus [17], 13%. In addition, the “Na+/K+” value in the assay with Rattus norvegicus [8] was determined as 0.85; in the assay on Rattus norvegicus [9], 2.12. Besides, the results for the Urine volume in the assay with Rattus norvegicus [13] and in the assay on Rattus norvegicus [18] were 1.66 ml 6hr-1 100g-1 and 0.86 ml 6hr-1 100g-1, respectively. Moreover, the UN in the assay with Rattus norvegicus [14] was determined as 90.9 mg/dL; with Rattus norvegicus [15], 104.7 mg/dL. The pKi at Adenosine A2 receptor was 6.00.
On to `CC(C)Cn1c(=O)n(C)c(=O)c2[nH]c(C(C3CC3)C3CC3)nc21`, for which the Cr in the assay on Rattus norvegicus [19] is 4.28 mg/dL; with Rattus norvegicus [20] it was 3.29 mg/dL; in the assay with Rattus norvegicus [21], 3.97 mg/dL. For the same compound, the Na in the assay on Rattus norvegicus [22] is recorded as 0.25 m equiv 6hr-1 100g-1; in the assay on Rattus norvegicus [26], 0.212 m equiv 6hr-1 100g-1; in the assay on Rattus norvegicus [32] it was 0.345 m equiv 6hr-1 100g-1. The T/C in the assay on Rattus norvegicus [23] is recorded as 1.68; in the assay on Rattus norvegicus [5], 2.08; in the assay with Rattus norvegicus [29] it was 1.11; with Rattus norvegicus [30], 1.4; in the assay on Rattus norvegicus [10], 1.99; with Rattus norvegicus [31], 1. The results for the UN in the assay on Rattus norvegicus [24], with Rattus norvegicus [25] and with Rattus norvegicus [36] were 122 mg/dL, 110.7 mg/dL and 150.7 mg/dL, respectively. The figures for the “Na+/K+” value in the assay with Rattus norvegicus [27], in the assay on Rattus norvegicus [28] and with Rattus norvegicus [8] were 1.09, 2.13 and 1.37, respectively. In addition, the Urine volume with Rattus norvegicus [33] was determined as 1.93 ml 6hr-1 100g-1; with Rattus norvegicus [34] it was 1.15 ml 6hr-1 100g-1; in the assay with Rattus norvegicus [35], 1.26 ml 6hr-1 100g-1. Also, the pKi at Adenosine A2 receptor was 6.39.

What is called inhibition in vivo is the relative decrease from the control value, in per cent. The term pKi denotes −log10 of the Ki, conventionally taken in molar units. The low end stands for a large Ki, the high end for a small Ki.
